Assay results reported in publication PMC5218480 (PLoS ONE, 2017).

Tested on: MV-4-11 cells
Test: Gene expression microarray analysis (Affymetrix PrimeView) and GSEA
Format: cell-based, human
Design: RFU PODN (11730768_x_at) / Fold change /veh PODN (11730768_x_at) / RFU LINC00158 (11744669_a_at) / Fold change /veh LINC00158 (11744669_a_at) / RFU DUSP10 (11751237_a_at) / Fold change /veh DUSP10 (11751237_a_at) / RFU ID3 (11757404_x_at) / Fold change /veh ID3 (11757404_x_at) / RFU PLEKHG5 (11737974_s_at) / Fold change /veh PLEKHG5 (11737974_s_at) / RFU LRRC4B (11730491_at) / Fold change /veh LRRC4B (11730491_at) / RFU GIMAP4 (11747438_a_at) / Fold change /veh GIMAP4 (11747438_a_at) / RFU KRT8 (11758183_x_at) / Fold change /veh KRT8 (11758183_x_at) / RFU CNN1 (11734310_a_at) / Fold change /veh CNN1 (11734310_a_at) / RFU VPS37D (11726825_at) / Fold change /veh VPS37D (11726825_at) / RFU C10orf10 (11716522_x_at) / Fold change /veh C10orf10 (11716522_x_at) / RFU KIR2DL2 /// KIR2DL4 /// KIR2DL5A /// KIR2DL5B /// KIR2DS1 /// KIR2DS2 /// KIR2DS3 /// KIR2DS4 /// KIR3DL3 /// KIR3DL3 /// KIR3DS1 (11738374_at) / Fold change /veh KIR2DL2 /// KIR2DL4 /// KIR2DL5A /// KIR2DL5B /// KIR2DS1 /// KIR2DS2 /// KIR2DS3 /// KIR2DS4 /// KIR3DL3 /// KIR3DL3 /// KIR3DS1 (11738374_at) / RFU C1QL1 (11718748_at) / Fold change /veh C1QL1 (11718748_at) / RFU TMPRSS4 (11747572_a_at) / Fold change /veh TMPRSS4 (11747572_a_at) / RFU HAMP (11756126_x_at) / Fold change /veh HAMP (11756126_x_at) / RFU RNFT2 (11725882_a_at) / Fold change /veh RNFT2 (11725882_a_at) / RFU NR4A2 (11747474_a_at) / Fold change /veh NR4A2 (11747474_a_at) / RFU ABCC12 (11746883_a_at) / Fold change /veh ABCC12 (11746883_a_at) / RFU TMEM136 (11760407_x_at) / Fold change /veh TMEM136 (11760407_x_at) / RFU CLDN22 /// WWC2 (11732394_at) / Fold change /veh CLDN22 /// WWC2 (11732394_at) / RFU HLA-DPB1 (11760878_x_at) / Fold change /veh HLA-DPB1 (11760878_x_at) / RFU SPINT1 (11716480_a_at) / Fold change /veh SPINT1 (11716480_a_at) / RFU GAP43 (11754022_s_at) / Fold change /veh GAP43 (11754022_s_at) / RFU A4GNT (11735810_at) / Fold change /veh A4GNT (11735810_at) / RFU PRB3 (11715151_x_at) / Fold change /veh PRB3 (11715151_x_at) / RFU TUBB4B (11761932_at) / Fold change /veh TUBB4B (11761932_at) / RFU CAPN14 (11732068_a_at) / Fold change /veh CAPN14 (11732068_a_at) / RFU TMCC2 (11721928_a_at) / Fold change /veh TMCC2 (11721928_a_at) / RFU IRGQ (11745062_a_at) / Fold change /veh IRGQ (11745062_a_at) / RFU FAM174B (11720279_a_at) / Fold change /veh FAM174B (11720279_a_at) / RFU TMPRSS4 (11748680_a_at) / Fold change /veh TMPRSS4 (11748680_a_at) / RFU FAM212B (11763350_a_at) / Fold change /veh FAM212B (11763350_a_at) / RFU PLEKHG5 (11743358_a_at) / Fold change /veh PLEKHG5 (11743358_a_at) / RFU ZSCAN30 (11745921_a_at) / Fold change /veh ZSCAN30 (11745921_a_at) / RFU CMKLR1 (11741424_a_at) / Fold change /veh CMKLR1 (11741424_a_at) / RFU LOC101060620 /// MAPK8IP1 (11723275_at) / Fold change /veh LOC101060620 /// MAPK8IP1 (11723275_at) / RFU SPTSSB (11747773_x_at) / Fold change /veh SPTSSB (11747773_x_at) / RFU PRSS12 (11739890_at) / Fold change /veh PRSS12 (11739890_at) / RFU BIN1 (11741810_x_at) / Fold change /veh BIN1 (11741810_x_at) / RFU WNT11 (11732464_a_at) / Fold change /veh WNT11 (11732464_a_at) / RFU C10orf10 (11716521_a_at) / Fold change /veh C10orf10 (11716521_a_at) / RFU C5orf56 (11738089_at) / Fold change /veh C5orf56 (11738089_at) / RFU CYB561 (11721691_x_at) / Fold change /veh CYB561 (11721691_x_at) / RFU ANKRD19P (11752326_a_at) / Fold change /veh ANKRD19P (11752326_a_at) / RFU OR2T12 /// OR2T33 /// OR2T8 (11738714_s_at) / Fold change /veh OR2T12 /// OR2T33 /// OR2T8 (11738714_s_at) / RFU VCAN (11748164_a_at) / Fold change /veh VCAN (11748164_a_at) / RFU JSRP1 (11732532_at) / Fold change /veh JSRP1 (11732532_at) / RFU KRTAP10-11 (11738290_x_at) / Fold change /veh KRTAP10-11 (11738290_x_at) / RFU MYO3A (11730013_a_at) / Fold change /veh MYO3A (11730013_a_at) / RFU EBF3 (11725865_a_at) / Fold change /veh EBF3 (11725865_a_at) / RFU CAMK2N1 (11719241_x_at) / Fold change /veh CAMK2N1 (11719241_x_at) / RFU C5orf56 (11738088_a_at) / Fold change /veh C5orf56 (11738088_a_at) / RFU OLFML3 (11715873_a_at) / Fold change /veh OLFML3 (11715873_a_at) / RFU LOC100653217 /// NTM (11731650_a_at) / Fold change /veh LOC100653217 /// NTM (11731650_a_at) / RFU MAPK11 (11762145_a_at) / Fold change /veh MAPK11 (11762145_a_at) / RFU FIZ1 (11724087_x_at) / Fold change /veh FIZ1 (11724087_x_at) / RFU OASL (11726364_x_at) / Fold change /veh OASL (11726364_x_at) / RFU SOX15 (11748057_x_at) / Fold change /veh SOX15 (11748057_x_at) / RFU CD79A (11719716_a_at) / Fold change /veh CD79A (11719716_a_at) / RFU HIST1H1D (11736915_at) / Fold change /veh HIST1H1D (11736915_at) / RFU CASKIN2 (11723855_a_at) / Fold change /veh CASKIN2 (11723855_a_at) / RFU LOC730098 (11760151_x_at) / Fold change /veh LOC730098 (11760151_x_at) / RFU OR4N2 (11742367_at) / Fold change /veh OR4N2 (11742367_at) / RFU PRRT2 (11749266_a_at) / Fold change /veh PRRT2 (11749266_a_at) / RFU SNX32 (11753110_a_at) / Fold change /veh SNX32 (11753110_a_at) / RFU CDHR5 (11726645_a_at) / Fold change /veh CDHR5 (11726645_a_at) / RFU RCAN1 (11760418_a_at) / Fold change /veh RCAN1 (11760418_a_at) / RFU FAM167A (11723789_a_at) / Fold change /veh FAM167A (11723789_a_at) / RFU FAM26E (11764081_at) / Fold change /veh FAM26E (11764081_at) / RFU ISYNA1 (11749810_s_at) / Fold change /veh ISYNA1 (11749810_s_at) / RFU ACY1 (11761880_at) / Fold change /veh ACY1 (11761880_at) / RFU 11764098_at / Fold change /veh 11764098_at / RFU SAMD14 (11745864_x_at) / Fold change /veh SAMD14 (11745864_x_at) / RFU NPB (11741838_a_at) / Fold change /veh NPB (11741838_a_at) / RFU TMPRSS6 (11731388_a_at) / Fold change /veh TMPRSS6 (11731388_a_at) / RFU KRTAP10-2 (11738614_at) / Fold change /veh KRTAP10-2 (11738614_at) / RFU ARHGAP8 /// PRR5-ARHGAP8 (11727945_x_at) / Fold change /veh ARHGAP8 /// PRR5-ARHGAP8 (11727945_x_at) / RFU KRTAP5-7 /// NADSYN1 (11734609_at) / Fold change /veh KRTAP5-7 /// NADSYN1 (11734609_at) / RFU RASL12 (11751679_a_at) / Fold change /veh RASL12 (11751679_a_at) / RFU CDKN2B (11736163_a_at) / Fold change /veh CDKN2B (11736163_a_at) / RFU PRF1 (11729649_at) / Fold change /veh PRF1 (11729649_at) / RFU, ZNF638 /// ZNF638-IT1 / Fold change vs veh, ZNF638 /// ZNF638-IT1 / RFU, PANK3 / Fold change vs veh, PANK3 / RFU, SH3YL1 / Fold change vs veh, SH3YL1 / RFU, ZEB2 / Fold change vs veh, ZEB2 / RFU, NRIP1 / Fold change vs veh, NRIP1 / RFU, PTTG1IP / Fold change vs veh, PTTG1IP / RFU, CAPN2 / Fold change vs veh, CAPN2 / RFU, MED14 / Fold change vs veh, MED14 / RFU, SNORA58 / Fold change vs veh, SNORA58 / RFU, C1orf63 / Fold change vs veh, C1orf63 / RFU, LRRFIP1 / Fold change vs veh, LRRFIP1 / RFU, NDUFAF7 / Fold change vs veh, NDUFAF7 / RFU, SLC12A2 / Fold change vs veh, SLC12A2 / RFU, IBTK / Fold change vs veh, IBTK / RFU, ESF1 / Fold change vs veh, ESF1 / Fold change vs veh, TMEM50B / RFU, TAOK1 / Fold change vs veh, TAOK1 / RFU, ACBD3 / Fold change vs veh, ACBD3 / RFU, TMA16 / Fold change vs veh, TMA16 / RFU, RWDD3 / Fold change vs veh, RWDD3 / RFU, BCAT1 / Fold change vs veh, BCAT1 / RFU, EDEM3 / Fold change vs veh, EDEM3 / RFU, TMEM33 / Fold change vs veh, TMEM33 / RFU, WDR75 / Fold change vs veh, WDR75 / RFU, AHCTF1 / Fold change vs veh, AHCTF1 / RFU, TFRC / Fold change vs veh, TFRC / RFU, ZDHHC17 / Fold change vs veh, ZDHHC17 / RFU, NOM1 / Fold change vs veh, NOM1 / RFU, ARL8B / Fold change vs veh, ARL8B / RFU, ZBTB11 / Fold change vs veh, ZBTB11 / RFU, TAMM41 / Fold change vs veh, TAMM41 / RFU, KIAA1704 /// LOC100996395 / Fold change vs veh, KIAA1704 /// LOC100996395 / RFU, ING1 / Fold change vs veh, ING1 / RFU, TRMT61B / Fold change vs veh, TRMT61B / RFU, FUBP3 / Fold change vs veh, FUBP3 / RFU, TP53 / Fold change vs veh, TP53 / RFU, TNKS2 / Fold change vs veh, TNKS2 / RFU, ZFP14 / Fold change vs veh, ZFP14 / RFU, ACTR2 / Fold change vs veh, ACTR2 / RFU, PPP3R1 / Fold change vs veh, PPP3R1 / RFU, PIK3R1 / Fold change vs veh, PIK3R1 / RFU, HNRNPA1 / Fold change vs veh, HNRNPA1 / RFU, RNF170 / Fold change vs veh, RNF170 / RFU, ZNF28 / Fold change vs veh, ZNF28 / RFU, RNGTT / Fold change vs veh, RNGTT / RFU, OGT / Fold change vs veh, OGT / RFU, BRD1 / Fold change vs veh, BRD1 / RFU, MARS / Fold change vs veh, MARS / RFU, ZNF655 / Fold change vs veh, ZNF655 / RFU, FAHD1 / Fold change vs veh, FAHD1 / RFU, BDP1 / Fold change vs veh, BDP1 / RFU, LRRCC1 / Fold change vs veh, LRRCC1 / RFU, ARID1A / Fold change vs veh, ARID1A / RFU, ZNF146 / Fold change vs veh, ZNF146 / RFU, ZNF330 / Fold change vs veh, ZNF330 / RFU, GPN3 / Fold change vs veh, GPN3 / RFU, C9orf123 / Fold change vs veh, C9orf123 / RFU, N4BP2L2 / Fold change vs veh, N4BP2L2 / RFU, ARFIP1 / Fold change vs veh, ARFIP1 / RFU, FAM179B / Fold change vs veh, FAM179B / RFU, BCL10 / Fold change vs veh, BCL10 / RFU, UHRF1BP1L / Fold change vs veh, UHRF1BP1L / RFU, BET1 / Fold change vs veh, BET1 / RFU, CNOT2 / Fold change vs veh, CNOT2 / RFU, ZNF268 / Fold change vs veh, ZNF268 / Fold change vs veh, ZNF507 / RFU, DGCR2 / Fold change vs veh, DGCR2 / RFU, WDSUB1 / Fold change vs veh, WDSUB1 / Fold change vs veh, HSP90B1 /// MIR3652 / RFU, ADSS / Fold change vs veh, ADSS / RFU, GK / Fold change vs veh, GK / RFU, ZNF148 / Fold change vs veh, ZNF148 / RFU, TAF9 / Fold change vs veh, TAF9 / RFU, SLC1A5 / Fold change vs veh, SLC1A5 / RFU, SLMO2 / Fold change vs veh, SLMO2 / RFU, ABCC4 / Fold change vs veh, ABCC4 / RFU, LOC101060439 /// RAP1B / Fold change vs veh, LOC101060439 /// RAP1B / RFU, RFX7 / Fold change vs veh, RFX7 / RFU, GTPBP10 / Fold change vs veh, GTPBP10 / RFU, CNEP1R1 / Fold change vs veh, CNEP1R1 / RFU, BIVM-ERCC5 /// ERCC5 / Fold change vs veh, BIVM-ERCC5 /// ERCC5 / RFU, ILF3 / Fold change vs veh, ILF3 / RFU 11762660_at / Fold change /veh 11762660_at / RFU VCAN (11757783_s_at) / Fold change /veh VCAN (11757783_s_at) / RFU DDX43 (11728927_at) / Fold change /veh DDX43 (11728927_at) / RFU KRT8 (11758188_x_at) / Fold change /veh KRT8 (11758188_x_at) / RFU NKD1 (11759106_at) / Fold change /veh NKD1 (11759106_at) / RFU SRD5A1 (11742802_a_at) / Fold change /veh SRD5A1 (11742802_a_at) / RFU TPSAB1 /// TPSB2 (11721975_s_at) / Fold change /veh TPSAB1 /// TPSB2 (11721975_s_at) / RFU GSTM3 (11746129_a_at) / Fold change /veh GSTM3 (11746129_a_at) / RFU IL23R (11737362_x_at) / Fold change /veh IL23R (11737362_x_at) / RFU TMEM51 (11727254_a_at) / Fold change /veh TMEM51 (11727254_a_at) / RFU PIWIL2 (11732686_x_at) / Fold change /veh PIWIL2 (11732686_x_at) / RFU ORM1 (11744905_x_at) / Fold change /veh ORM1 (11744905_x_at) / RFU CCDC152 (11743942_at) / Fold change /veh CCDC152 (11743942_at) / RFU ECM1 (11717891_a_at) / Fold change /veh ECM1 (11717891_a_at) / RFU IL23R (11748794_a_at) / Fold change /veh IL23R (11748794_a_at) / RFU TNFAIP8L3 (11732012_x_at) / Fold change /veh TNFAIP8L3 (11732012_x_at) / RFU MBOAT4 (11741988_at) / Fold change /veh MBOAT4 (11741988_at) / RFU 11764193_at / Fold change /veh 11764193_at / RFU TMEM53 (11763286_at) / Fold change /veh TMEM53 (11763286_at) / RFU MAGEB2 (11727129_at) / Fold change /veh MAGEB2 (11727129_at) / RFU TMEM200A (11744735_a_at) / Fold change /veh TMEM200A (11744735_a_at) / RFU CCDC152 (11751479_a_at) / Fold change /veh CCDC152 (11751479_a_at) / RFU FAM211A (11726209_a_at) / Fold change /veh FAM211A (11726209_a_at) / RFU RGS16 (11746705_a_at) / Fold change /veh RGS16 (11746705_a_at) / RFU VCAN (11755009_s_at) / Fold change /veh VCAN (11755009_s_at) / RFU RHOB (11743442_s_at) / Fold change /veh RHOB (11743442_s_at) / RFU RGS16 (11720943_a_at) / Fold change /veh RGS16 (11720943_a_at) / RFU RGS16 (11720944_at) / Fold change /veh RGS16 (11720944_at) / RFU, VPS4B / Fold change vs veh, VPS4B / RFU, CREB1 / Fold change vs veh, CREB1 / RFU, DNAJC13 / Fold change vs veh, DNAJC13 / RFU, GNAQ / Fold change vs veh, GNAQ / RFU, CDK5R1 / Fold change vs veh, CDK5R1 / RFU, ZRANB3 / Fold change vs veh, ZRANB3 / RFU, CUL4A / Fold change vs veh, CUL4A / RFU, CCNY / Fold change vs veh, CCNY / RFU, UFL1 / Fold change vs veh, UFL1 / RFU, COG3 / Fold change vs veh, COG3 / RFU, DIAPH2 / Fold change vs veh, DIAPH2 / RFU, SKA2 / Fold change vs veh, SKA2 / RFU, AFF3 / Fold change vs veh, AFF3 / RFU, LMF1 / Fold change vs veh, LMF1 / RFU, IPO11 / Fold change vs veh, IPO11 / RFU, DFFB / Fold change vs veh, DFFB / RFU, FOXP1 / Fold change vs veh, FOXP1 / RFU, CARD8 / Fold change vs veh, CARD8 / RFU, STRN3 / Fold change vs veh, STRN3 / RFU, ADK / Fold change vs veh, ADK / RFU, RASSF2 / Fold change vs veh, RASSF2 / RFU, WIPF1 / Fold change vs veh, WIPF1 / RFU, LARP1B / Fold change vs veh, LARP1B / RFU, RASA1 / Fold change vs veh, RASA1 / RFU, RB1 / Fold change vs veh, RB1 / RFU, PPFIA1 / Fold change vs veh, PPFIA1 / RFU, MAT2A / Fold change vs veh, MAT2A / RFU, CCT5 / Fold change vs veh, CCT5 / RFU, WDR92 / Fold change vs veh, WDR92 / RFU, CUX1 / Fold change vs veh, CUX1 / RFU, TTC7A / Fold change vs veh, TTC7A / RFU, TMEM135 / Fold change vs veh, TMEM135 / RFU, DEPTOR / Fold change vs veh, DEPTOR / RFU, CPM / Fold change vs veh, CPM / RFU, DNAJB6 / Fold change vs veh, DNAJB6 / RFU, CACNA2D3 / Fold change vs veh, CACNA2D3 / RFU, DTX4 / Fold change vs veh, DTX4 / RFU, TFCP2 / Fold change vs veh, TFCP2 / RFU, GMCL1 /// GMCL1P1 / Fold change vs veh, GMCL1 /// GMCL1P1 / RFU, AEBP2 / Fold change vs veh, AEBP2 / RFU, SNHG1 /// SNORD22 /// SNORD25 /// SNORD26 /// SNORD27 /// SNORD28 /// SNORD29 /// SNORD31 / Fold change vs veh, SNHG1 /// SNORD22 /// SNORD25 /// SNORD26 /// SNORD27 /// SNORD28 /// SNORD29 /// SNORD31 / Fold change (Aza/veh), C12orf56 (ProbeSet 11735607_a_at) / Fold change (ACY-1035/veh), C12orf56 (ProbeSet 11735607_a_at) / Fold change (Aza/veh), FGFR1OP (ProbeSet 11751329_s_at) / Fold change (ACY-1035/veh), FGFR1OP (ProbeSet 11751329_s_at) / Fold change (Aza/veh), VPS36 (ProbeSet 11739960_a_at) / Fold change (ACY-1035/veh), VPS36 (ProbeSet 11739960_a_at) / RFU SYPL1 (11715823_x_at) / Fold change /veh SYPL1 (11715823_x_at) / RFU IGFBP7 (11715501_s_at) / Fold change /veh IGFBP7 (11715501_s_at) / RFU REEP3 (11722064_at) / Fold change /veh REEP3 (11722064_at) / RFU IGLL1 (11728026_x_at) / Fold change /veh IGLL1 (11728026_x_at): dose or concentration left out as unconfirmed
Details: ProbeSet 11755070_a_at; LIST D

Nc1ncn([C@@H]2O[C@H](CO)[C@@H](O)[C@H]2O)c(=O)n1 [azacitidine]
RFU, CARD8: 161.67 RFU
